According to patent US20100099130A1, “METHODS AND DEVICES FOR MONITORING PLATELET FUNCTION” (PLACOR INC., priority 2006, published 2010):

Columns and labels:
[1] = tested on: platelet adhesion; conditions: long-term aspirin therapy; cited from earlier work
[2] = tested on: platelets; experiment: Platelet Reactivity Test (PRT), time to platelet mass formation in whole blood of volunteers; assay type: in vivo, human; conditions: after taking aspirin, most volunteers; without aspirin the test concludes in less than 100 seconds
Protocol: The PRT test is used to activate platelet gel formations using a small (20 microliter) whole blood sample to help identify proper platelet function in the absence of platelet drug therapy and to identify inhibited platelet function in the presence of platelet drug therapy. The test is performed by running a small quantity of blood through a channel restriction that will induce the formation of platelet gels and trap them in a focused area similar to the way platelets are activated and focused in the body. Cartridge 150 has capillary tube inlet 160 that can receive a capillary tube filled with blood. A capillary tube filled with blood can be attached to capillary tube port 200. Conduit 230 leads from capillary tube port 200 to junction 270 and junction 270 splits into conduit 250 and passageways 240, 260. Conduit 250 and passageways 240, 260 include overflow wells 280. Conduit 250 and passageways 240, 260 lead to ports 180, 170, 190, respectively. […] In a preferred embodiment, the cartridge 150 has a bar code that is read by the instrument 400. […] The instrument 400 will report the average of the platelet reactivity times determined from the blood in passageways 240 and 260. […] If the two platelet reactivity times determined from the blood in passageways 240 and 260 are greatly different, the instrument will indicate that the test is invalid. […]

Structure (SMILES): CC(=O)Oc1ccccc1C(=O)O [aspirin]
- individuals who do not achieve inhibition of platelet adhesion [1]: up to 30%
- PRT (platelet reactivity time) [2]: greater than 150 seconds
